Experimental data reported in ChEMBL document CHEMBL6096729, “Creating Glepaglutide, the First Long-Acting GLP-2 Analogue to Enable a Ready-to-Use Injection” (J Med Chem, 2025).

What was measured:
[1] = target: T1, Glucagon-like peptide 2 receptor (Homo sapiens) (UniProt O95838); assay: Agonist activity at recombinant human GLP-2R overexpressed in HEK293 cells assessed as cAMP accumulation by HTRF assay relative to control; type: functional, cell-based; conditions: filed as agonist
T1 sequence (whole entry): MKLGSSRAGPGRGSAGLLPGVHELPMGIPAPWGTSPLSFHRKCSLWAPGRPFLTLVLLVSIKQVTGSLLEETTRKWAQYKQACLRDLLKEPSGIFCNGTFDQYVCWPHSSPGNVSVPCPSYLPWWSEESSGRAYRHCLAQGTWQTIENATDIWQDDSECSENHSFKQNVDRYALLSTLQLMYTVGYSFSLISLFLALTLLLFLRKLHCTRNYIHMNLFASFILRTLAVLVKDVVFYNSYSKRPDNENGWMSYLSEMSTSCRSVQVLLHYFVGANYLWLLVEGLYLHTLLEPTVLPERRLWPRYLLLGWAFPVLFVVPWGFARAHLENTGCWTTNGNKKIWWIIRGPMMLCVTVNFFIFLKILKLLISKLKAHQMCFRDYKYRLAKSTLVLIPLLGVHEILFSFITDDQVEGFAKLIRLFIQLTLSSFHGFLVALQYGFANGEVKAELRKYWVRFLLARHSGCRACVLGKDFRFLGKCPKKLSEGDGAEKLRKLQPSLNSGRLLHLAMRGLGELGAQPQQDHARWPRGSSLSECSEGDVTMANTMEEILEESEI

[2] = Stability of compound assessed as change in fluorescence intensity measured after 96 hrs by ThT fibrillation assay; type: physicochemical
Mus musculus = assay: Effect on small intestine of C57BL mouse assessed as mass of small intestine at 30 nmol/kg bid for 10 days relative to teduglutide; type: functional; conditions: time 10 day
[3] = target: T2, Glucagon-like peptide 2 receptor (Homo sapiens, UniProt O95838); assay: Agonist activity at recombinant human GLP-2R overexpressed in HEK293 cells assessed as cAMP accumulation by HTRF assay; type: functional, cell-based
T2 sequence (O95838 whole entry): T1 sequence (whole entry)

[4] = Chemical stability in 50 mM Histidine at pH 7.0 at 40 degreeC assessed as fold decrease in total degradation measured after 3 weeks by HPLC analysis relative to teduglutide; type: physicochemical; conditions: buffer, pH 7, 504 h
[5] = Half life in human; type: ADME

Row | Molecule | Efficacy [1] [%] | Flu intensity [2] [RFU] | Activity [2] | Activity (Mus musculus) [%] | EC50 [3] [nM] | fold change (FC) [4] | half-life [5] [h]
1 | CC[C@H](C)[C@H](NC(=O)[C@H](Cc1ccccc1)NC(=O)[C@H](CC(=O)O)NC(=O)[C@H](CCCNC(=N)N)NC(=O)[C@H](C)NC(=O)[C@H](C)NC(=O)[C@H](CC(C)C)NC(=O)[C@H](CC(N)=O)NC(=O)[C@H](CC(=O)O)NC(=O)[C@H](CC(C)C)NC(=O)[C@@H](NC(=O)[C@@H](NC(=O)[C@H](CC(N)=O)NC(=O)[C@H](CCSC)NC(=O)[C@H](CCC(=O)O)NC(=O)[C@H](CC(=O)O)NC(=O)[C@H](CO)NC(=O)[C@H](Cc1ccccc1)NC(=O)[C@H](CO)NC(=O)CNC(=O)[C@H](CC(=O)O)NC(=O)CNC(=O)[C@@H](N)Cc1c[nH]cn1)[C@@H](C)O)[C@@H](C)CC)C(=O)N[C@@H](CC(N)=O)C(=O)N[C@@H](Cc1c[nH]c2ccccc12)C(=O)N[C@@H](CC(C)C)C(=O)N[C@H](C(=O)N[C@@H](CCC(N)=O)C(=O)N[C@H](C(=O)N[C@@H](CCCCN)C(=O)N[C@H](C(=O)N[C@H](C(=O)N[C@@H](CC(=O)O)C(=O)O)[C@@H](C)O)[C@@H](C)CC)[C@@H](C)O)[C@@H](C)CC | 101 | – | – | – | – | – | –
2 | H-HGEGSFSDELSTILDALAARDFIAWLIATKITD-NH2 | – | 500 | – | – | – | – | –
3 | H-HGEGSFSDELSTILDALAARDFIAWLIATKITDKKKKKK-OH | – | – | Not_active | – | – | – | –
4 | H-HGEGSFSSELSTILDALAARDFIAWLIATKITD-NH2 | 102 | 500 | – | 106 | 0.11 | – | –
5 | H-HGEGSFSSELSTILDALAARDFIAWLIATKITDKKKKKK-NH2 | 100 | – | Not_active | 109 | 0.18 | – | –
6 | H-HGEGTFSDELSTILDALAARDFIAWLIATKITD-NH2 | 104 | 500 | – | 98 | 0.09 | – | –
7 | H-HGEGTFSDELSTILDALAARDFIAWLIATKITDKKKKKK-NH2 | 102 | – | Not_active | 105 | 0.34 | – | –
8 | H-HGEGTFSSELATILDALAARDFIAWLIATKITD-NH2 | 100 | – | Not_active | 117 | 0.1 | – | –
9 | H-HGEGTFSSELATILDALAARDFIAWLIATKITDKKKKKK-NH2 | 102 | – | Not_active | 109 | 0.18 | 2.6 | 88
10 | H-HGEGTFSSELSTILDALAARDFIAWLIATKITD-NH2 | 101 | 500 | – | 101 | 0.18 | – | –
11 | H-HGEGTFSSELSTILDALAARDFIAWLIATKITDKKKKKK-NH2 | 102 | – | Not_active | 106 | 0.37 | – | –
